Tests used:
[1] = Fluorescence depolarization (FD) with DPH encapsulated in PA nanofibers; format: physicochemical; conditions: for supramolecular motion on addition of Ca2+: 5 mM CaCl2, confirmed by FD and T2-NMR; for fluorescence anisotropy: DPH probe in hydrophobic core of IKVAV PA nanofibers
Description: An aqueous solution of 100 μL of annealed PA ([PA]=6 mM, [KCl]=3 mM, [NaCl]=150 mM) was added a THF solution (2 μL) of 1,6-diphenyl-1,3,5-hexatriene (DPH; 1.4 mM), and the mixture was incubated for 30 min at 25° C. Then, the mixture was diluted with aqueous KCl and NaCl (1900 μL, [KCl]=3 mM, [NaCl]=150 mM), incubated for 10-30 min at 25° C. to afford a solution of DPH (1.4 μM)-embedded PA (300 μM). To obtain IKVAV PA2 (A2G2) or IKVAV PA5 (G4) in the presence of CaCl2), 5 mM CaCl2) was then added to the DPH-embedded PA aqueous solution to afford PA: CaCl2) at a molar ratio of 6:1. DPH was exited at 336 nm and emission was recorded at 450 nm on an ISS model PC1 spectrofluorometer with a 300 W xenon arc lamp with power of 18 A. Excitation slit and emission slit widths were set as 1 mm (8 nm bandwidth). Anisotropy was calculated using the following equation: […]
Where F∥ represents the parallel intensity to the excitation plane, F⊥ is the perpendicular intensity to the excitation plane, g is grating factor (G-factor) that represents the intensity ratio of the sensitivity of the detection system for vertically and horizontally polarized light. G-factors were determined individually in each measurement. Results were averaged based on 34 iterations from two measurements.

[2] = test system: murine model of severe spinal cord injury (SCI); test: Corticospinal tract (CST) axon regrowth after SCI (BDA tracing); format: in vivo, mouse; conditions: 12 weeks after injury, BDA-labeled axons
Description: All experiments were conducted at the Simpson Querrey Institute at Northwestern University. 182 CD1 mice (Charles River) were subjects of this study (N=38 Sham, N=38 IKVAV PA2 alone, N=38 IKVAV PA2+FGF2 PA1, N=38 IKVAV PA2+FGF2 PA2, N=12 IKVAV PA1, N=12 Backbone PA, N=6 IKVAV PA4). The age of animals used in the study was in the range of 10-16 weeks. 8 independent in vivo experiments were carried out (injury+PA injection) and each of the 8 experiments had animals of the exact same age which were injected with at least the 4 main treatment groups: Sham, IKVAV PA2 alone, IKVAV PA2+FGF2 PA1, and IKVAV PA2+FGF2 PA2. Animals were anesthetized using 2.5% isoflurane gas with oxygen. A laminectomy was performed to expose the spinal cord at the T10-T11 spinal level. A severe contusive injury was performed using the Infinite Horizon Spinal Cord Impactor system (IH-0400 Precision Systems and Instrumentation) with 85 kdyn of impact force and a dwell time of 60 s. After the lesion, the skin was sutured using 9 mm wound clips (BD Biosciences) and the animals were recovered on a heating pad to maintain body temperature. Bladders were manually expressed daily during the entire 12 weeks of the experiment.
PAs (dissolved in sterile NaCl 0.9% solution at 1 wt %) were injected 24 h after SCI using a glass capillary micropipette (Sutter Instruments, Novato, CA) (outer diameter, 100 m) coated with Sigmacote (Sigma-Aldrich) to reduce surface tension as described elsewhere (19). The capillaries were loaded onto a Hamilton syringe using a female Luer adaptor (World Precision Instruments) controlled by a Micro4 microsyringe pump controller (World Precision Instruments). Under isoflurane anesthesia, autoclips were removed and the injury site was exposed. At 24 h post injury, the laminectomy in the spinal column was still intact and the bruise created by the lesion was visible. A stereotaxic Kopf apparatus was used to position the micropipette just dorsal to the lesion. The micropipette was lowered to a depth of 750 m measured from the dorsal surface of the cord, and 4-6 μL of the diluted amphiphile solution was injected at 1 L/min. […]
Axons labeled using BDA (Thermofisher, N7167) or stained with 5HT (Abcam) were quantified using Imaris® software version 9.3 as previously described (21). Lines were drawn across longitudinal spinal cord sections from the proximal border (PB) to the distal border (DB) of the SCI lesion at consistent distances and the number of axons intercepting the lines drawn was counted by researchers that were blinded to the experimental conditions. Multiple sections through the middle of the cord, where BDA or 5HT staining was denser, were counted per mouse and expressed as total intercepts per location, per animal. […]

Row | supramolecular motion on addition of Ca2+ [1] | fluorescence anisotropy [1] | Substance | CST axon regrowth within the lesion [2]
1 | suppressed | 0.18 | C16-G4E4GIKVAV [IKVAV PA5] | –
2 | – | – | C16-V2A2E4GIKVAV [IKVAV PA1] | some regrowth of axons
3 | – | 0.30 | C16-VAG2E4GIKVAV [IKVAV PA4] | intermediate level of axon regrowth
4 | suppressed | 0.21 | C16-A2G2E4GIKVAV [IKVAV PA2] | modest, but increased axon regrowth
